Tests used:
[1] = test system: FOP control vector (randomized, non-functional sequence instead of functional TCF elements) in HCT116 cells; experiment: Control reporter assay, HCT116 cells stably transfected with FOP control vector (HCT116-FOP), luciferase readout; format: cell-based; settings: Homo sapiens, HCT-116, 36 hours incubation, luciferase expression, dilution series up to 50 μM
Experimental: In a parallel approach, HCT116 cells were cotransfected with the FOP control vector and pcDNA3. The FOP vector is identical to the TOP construct, but it contains instead of functional TCF elements a randomized, non-functional sequence. For this transfection a stable transfected cell line was generated as well.
(§1) In preparation of the assay, the two cell lines were plated 24 hours before at 10000 cells per well of a 384 micro titre plate (MTP) in 30 μL growth medium. Selective inhibitory activity for small molecules on the mutated Wnt pathway was determined after parallel incubation of both (TOP and FOP) HCT116 reporter cell lines with a compound dilution series from 50 μM to 15 nM in steps of 3.16-fold dilutions in CAFTY buffer (130 mM NaCl, 5 mM KCl, 20 mM HEPES, 1 mM MgCl2, 5 mM NaHCO3, pH 7.4) containing 2 mM Ca^2+ and 0.01% BSA. The compounds were thereby serially prediluted in 100% DMSO and thereafter in addition 50 fold into the CAFTY compound dilution buffer (described above). From this dilution 10 μL were added to the cells in 30 μL growth medium and incubated for 36 hours at 37° C. and 5% CO2. Thereafter luciferase assay buffer (1:1 mixture of luciferase substrate buffer (20 mM Tricine, 2.67 mM MgSO4, 0.1 mM EDTA, 4 mM DTT, 270 μM Coenzyme A, 470 μM Luciferin, 530 μM ATP, ph adjusted to pH 7.8 with a sufficient volume of 5M NaOH) and Triton buffer (30 mL Triton X-100, 115 mL glycerol, 308 mg Dithiothreitol, 4.45 g Na2HPO4.2H2O, 3.03 g TRIS HCl, ad 1I H2O, pH 7.8) was added as equal volume to the compound solution on the cells to determine luciferase expression as a measure of Wnt signaling activity in a luminometer.

[2] = test system: constitutive active colorectal cancer cell (CRC) Wnt pathway; experiment: Cellular reporter assay, HCT116 cells stably transfected with Super TopFlash vector (HCT116-TOP), luciferase readout; format: cell-based; settings: Homo sapiens, HCT-116, 36 hours incubation, luciferase expression, average or median values
Experimental: In order to discover and characterize small molecules which inhibit the constitutive active colorectal cancer cell (CRC) Wnt pathway, a cellular reporter assay was employed. The corresponding assay cell was generated by transfection of the colorectal cancer cell line HCT116 (ATCC, #CCL-247) with the Super TopFlash vector (Morin, Science 275, 1997, 1787-1790; Molenaar et al., Cell 86 (3), 1996, 391-399). The HCT116 cell line is cultivated at 37° C. and 5% CO2 in DMEM/F-12 (Life Technologies, #11320-074), supplemented with 2 mM glutamine, 20 mM HEPES, 1.4 mM pyruvate, 0.15% Na-bicarbonate and 10% foetal bovine serum (GIBCO, #10270), this cancer cell line is pathophysiological relevant since it carries a deletion of position S45 in the β-catenin gene, leading to constitutive active Wnt signaling. Stable transfectants were generated by cotransfection with pcDNA3 and selection of stable transfected cells with 1 mg/mL G418.
as §1

IC50 [1] | IC50 [2] | SMILES
≥ 50 µM | 0.377 µM | O=C(CN1CCOCC1)Nc1cc(C(=O)Nc2ccc(-c3ccc(CO)nc3)cc2)ccc1OC(F)(F)F [Example 14, N-{4-[6-(hydroxymethyl)pyridin-3-yl]phenyl}-3-[(morpholin-4-ylacetyl)amino]-4-(trifluoromethoxy)benzamide]
≥ 50 µM | 0.00315 µM | O=C(Nc1ccc(-c2cccnc2F)cc1)c1ccc(OC(F)(F)F)c(NC(=O)C2(N3CCOCC3)CC2)c1 [Example 20, N-[4-(2-fluoropyridin-3-yl)phenyl]-3-({[1-(morpholin-4-yl)cyclopropyl]carbonyl}amino)-4-(trifluoromethoxy)benzamide]
≥ 50 µM | 3.11 µM | COc1ccc(NC(=O)c2ccc(-c3cncnc3)cc2)cc1NC(=O)CN1CCOCC1 [Example 2, N-{4-methoxy-3-[(morpholin-4-ylacetyl)amino]phenyl}-4-(pyrimidin-5-yl)benzamide]
≥ 50 µM | 0.037 µM | O=C(CN1CCOCC1)Nc1cc(C(=O)Nc2ccc(-c3cccnc3)cc2)ccc1OC(F)F [Example 27, 4-(difluoromethoxy)-3-[(morpholin-4-ylacetyl)amino]-N-[4-(pyridin-3-yl)phenyl]benzamide]
32 µM | 2.66 µM | O=C(CN1CCOCC1)Nc1cc(C(=O)Nc2ccc(-c3cnc(C(F)(F)F)nc3)cc2)ccc1OC(F)(F)F [Example 12, 3-[(morpholin-4-ylacetyl)amino]-4-(trifluoromethoxy)-N-{4-[2-(trifluoromethyl)pyrimidin-5-yl]phenyl}benzamide]
≥ 50 µM | 15.6 µM | COc1ccc(NC(=O)c2ccc(-c3cnn(C)c3)cc2)cc1NC(=O)CN1CCOCC1 [Example 36, N-{4-methoxy-3-[(morpholin-4-ylacetyl)amino]phenyl}-4-(1-methyl-1H-pyrazol-4-yl)benzamide]
≥ 50 µM | 5.4 µM | O=C(CN1CCOCC1)Nc1cc(C(=O)Nc2ccc(-c3cccnc3F)cc2)ccc1OC(F)F [Example 39, 4-(difluoromethoxy)-N-[4-(2-fluoropyridin-3-yl)phenyl]-3-[(morpholin-4-ylacetyl)amino] benzamide]
≥ 50 µM | 0.0555 µM | CN1CCN(CC(=O)Nc2cc(C(=O)Nc3ccc(-c4cnc(N)nc4)cc3)ccc2OC(F)(F)F)CC1 [Example 33]
≥ 50 µM | 0.2 µM | O=C(CN1CCOCC1)Nc1cc(C(=O)Nc2ccc(-c3cnc(N4CCC4)nc3)cc2)ccc1OC(F)(F)F [Example 11, N-{4-[2-(azetidin-1-yl)pyrimidin-5-yl]phenyl}-3-[(morpholin-4-ylacetyl)amino]-4-(trifluoromethoxy)benzamide]
≥ 50 µM | 0.545 µM | COc1ccc(-c2ccc(NC(=O)c3ccc(OC(F)(F)F)c(NC(=O)CN4CCOCC4)c3)cc2)cn1 [Example 15, N-[4-(6-methoxypyridin-3-yl)phenyl]-3-[(morpholin-4-ylacetyl)amino]-4-(trifluoromethoxy)benzamide]
≥ 50 µM | 0.625 µM | COc1ccc(NC(=O)c2ccc(-c3ccc(N)nc3)cc2)cc1NC(=O)CN1CCOCC1 [Example 1, 4-(6-aminopyridin-3-yl)-N-{4-methoxy-3-[(morpholin-4-ylacetyl)amino]phenyl}benzamide]
≥ 50 µM | 0.18 µM | O=C(CN1CCOCC1)Nc1cc(C(=O)Nc2ccc(-c3cn[nH]c3)cc2)ccc1OC(F)(F)F [Example 6, 3-[(morpholin-4-ylacetyl)amino]-N-[4-(1H-pyrazol-4-yl)phenyl]-4-(trifluoromethoxy)benzamide]
≥ 50 µM | 0.16 µM | Cn1cc(-c2ccc(NC(=O)c3ccc(OC(F)(F)F)c(NC(=O)CN4CCOCC4)c3)cc2)cn1 [Example 5, N-[4-(1-methyl-1H-pyrazol-4-yl)phenyl]-3-[(morpholin-4-ylacetyl)amino]-4-(trifluoromethoxy)-benzamide]
40 µM | 0.0475 µM | CN1CCN(CC(=O)Nc2cc(C(=O)Nc3ccc(-c4cncnc4)cc3)ccc2OC(F)(F)F)CC1 [Example 32, 3-{[(4-methylpiperazin-1-yl)acetyl]amino}-N-[4-(pyrimidin-5-yl)phenyl]-4-(trifluoromethoxy)benzamide]
46.5 µM | 0.00455 µM | Nc1ccc(-c2ccc(NC(=O)c3ccc(OC(F)(F)F)c(NC(=O)C4(N5CCOCC5)CC4)c3)cc2)cn1 [Example 21, N-[4-(6-aminopyridin-3-yl)phenyl]-3-({[1-(morpholin-4-yl)cyclopropyl]carbonyl}amino)-4-(trifluoromethoxy)benzamide]
≥ 50 µM | 0.0787 µM | O=C(CN1CCOCC1)Nc1cc(C(=O)Nc2ccc(-c3cccnc3)cc2)ccc1OC(F)(F)F [Example 18, 3-[(morpholin-4-ylacetyl)amino]-N-[4-(pyridin-3-yl)phenyl]-4-(trifluoromethoxy)benzamide]
≥ 50 µM | 0.0207 µM | Cc1ccc(C(=O)Nc2ccc(-c3cccnc3F)cc2)cc1NC(=O)C1(N2CCOCC2)CC1 [Example 25, N-[4-(2-fluoropyridin-3-yl)phenyl]-4-methyl-3-({[1-(morpholin-4-yl)cyclopropyl]carbonyl}-amino)benzamide]
≥ 50 µM | 0.0262 µM | Nc1ncc(-c2ccc(NC(=O)c3ccc(Cl)c(NC(=O)C4(N5CCOCC5)CC4)c3)cc2)cn1 [Example 23, N-[4-(2-aminopyrimidin-5-yl)phenyl]-4-chloro-3-({[1-(morpholin-4-yl)cyclopropyl]carbonyl}amino)-benzamide]
≥ 50 µM | 23 µM | COc1ccc(NC(=O)c2ccc(-c3cnc(N)nc3)cc2)cc1NC(=O)CN1CCOCC1 [Example 37, 4-(2-aminopyrimidin-5-yl)-N-{4-methoxy-3-[(morpholin-4-ylacetyl)amino]phenyl} benzamide]
≥ 50 µM | 0.0488 µM | Nc1ccc(-c2ccc(NC(=O)c3ccc(OC(F)F)c(NC(=O)CN4CCOCC4)c3)cc2)cn1 [Example 29, N-[4-(6-aminopyridin-3-yl)phenyl]-4-(difluoromethoxy)-3-[(morpholin-4-ylacetyl)amino]benzamide]
39 µM | 0.226 µM | Nc1ncc(-c2ccc(NC(=O)c3ccc(OC(F)F)c(NC(=O)CN4CCOCC4)c3)cc2)cn1 [Example 28, N-[4-(2-aminopyrimidin-5-yl)phenyl]-4-(difluoromethoxy)-3-[(morpholin-4-ylacetyl)amino]benzamide]
38.5 µM | 0.0313 µM | CN1CCN(CC(=O)Nc2cc(C(=O)Nc3ccc(-c4cccnc4)cc3)ccc2OC(F)(F)F)CC1 [Example 30, 3-{[(4-methylpiperazin-1-yl)acetyl]amino}-N-[4-(pyridin-3-yl)phenyl]-4-(trifluoromethoxy)benzamide]
≥ 50 µM | 0.0665 µM | O=C(CN1CCOCC1)Nc1cc(C(=O)Nc2ccc(-c3cncnc3)cc2)ccc1OC(F)(F)F [Example 8, 3-[(morpholin-4-ylacetyl)amino]-N-[4-(pyrimidin-5-yl)phenyl]-4-(trifluoromethoxy)benzamide]
≥ 50 µM | 0.0032 µM | Nc1ncc(-c2ccc(NC(=O)c3ccc(OC(F)(F)F)c(NC(=O)C4(N5CCOCC5)CC4)c3)cc2)cn1 [Example 19, N-[4-(2-aminopyrimidin-5-yl)phenyl]-3-({[1-(morpholin-4-yl)cyclopropyl]carbonyl}amino)-4-(trifluoromethoxy)benzamide]
≥ 50 µM | 0.014 µM | O=C(Nc1ccc(-c2cccnc2F)cc1)c1ccc(F)c(NC(=O)C2(N3CCOCC3)CC2)c1 [Example 26, 4-fluoro-N-[4-(2-fluoropyridin-3-yl)phenyl]-3-({[1-(morpholin-4-yl)cyclopropyl]carbonyl}-amino)benzamide]
41.5 µM | 0.117 µM | Cc1ncccc1-c1ccc(NC(=O)c2ccc(OC(F)(F)F)c(NC(=O)CN3CCOCC3)c2)cc1 [Example 16, N-[4-(2-methylpyridin-3-yl)phenyl]-3-[(morpholin-4-ylacetyl)amino]-4-(trifluoromethoxy)benzamide]

Reference: US20180042931A1 (Bayer Pharma Aktiengesellschaft, priority 2015, published 2018)
